Measurements: patent publication US7732398B2, “Medicinal uses of mu-opioid receptor agonists” (Cornell Research Foundation, Inc., priority 2000, dated 2010)
“Also recorded” adds a separate entry of the source.

Legend:
Male Sprague-Dawley rats = test: Rat tail-flick test, antinociceptive effects after intrathecal administration; format: in vivo; details: yohimbine 100 μg alone, intrathecal
Method: Male Sprague-Dawley rats (300-350 g) were used.
Under light halothane anesthesia a needle connected to a Hamilton syringe was inserted percutaneously between spinal processes of the third and fourth lumbar vertebrae into the intrathecal space. A quick flick of the tail was observed when the tip of the needle entered the intrathecal space and was used as an indicator of successful puncture (Mestre et al., 1994). Drugs were delivered in a volume of 5 μl.
Intrathecal catheterization was performed at least two days prior to the experiment as previously described (Shimoyama et al., 1996). Briefly, under halothane anesthesia, a PE-10 tube was inserted through a small hole made in the atlanto-occipital membrane and threaded 8.5 cm down the intrathecal space to the lumbosacral level of the spinal cord. Drugs were delivered via the catheter in a volume of 5 μl, followed by 10 μl saline to flush the catheter.
To assess the antinociceptive effects of the opioids, the tail-flick test was used. Radiant heat was applied to the tail at 5-8 cm from the tip using a tail-flick apparatus (IITC, Woodland Hills, Calif.). The time from the onset of the heat to the withdrawal of the tail (tail-flick latency) was measured. The intensity of the radiant heat was adjusted so that baseline latencies would fall between 2.5 and 3.5 seconds. To avoid tissue damage the heat stimulus was discontinued after seven seconds. A baseline latency was obtained for each animal prior to the administration of any drug. Subsequent response latencies were determined at designated time points. Analgesic testing was performed by a blinded investigator.
Cumulative dose-response studies were performed for each drug using the tail-flick test (Shimoyama et al., 1996), (Shimoyama et al., 1997). Each drug was tested in a group of ten rats. After measuring the baseline latencies, increasing doses of each drug were administered via an intrathecal catheter until each animal in the group became an analgesic responder. An analgesic responder was defined as one whose response tail-flick latency was two or more times the value of the baseline latency. The response latency after each dosing was determined at peak analgesia, which was 15, 30 and 45 min after the administration of the MOR, DALDA and [Dmt^1]DALDA, respectively (based on preliminary studies). Any subsequent dosing was performed immediately after the determination of response latency. The percentage of analgesic responders in the group of rats for each cumulative dose was calculated, and a cumulative dose-response curve was constructed. The dose-response data were analyzed by the BLISS-21 computer program. This program maximized the log-likelihood function to fit a parallel set of gaussian normal sigmoid curves to the dose-response data and provides ED50 values, 95% confidence interval (CI) and relative potency estimates (Umans and Inturrisi, 1981).
The effect of naloxone on the antinociceptive effects of intrathecal MOR, DALDA and [Dmt^1]DALDA was examined. An equipotent dose (3 times the ED50 value determined in Study 1) of MOR, DALDA or [Dmt^1]DALDA was given via an intrathecal catheter. Tail-flick latencies were measured prior to the administration of any drug and at the time of peak analgesia for each compound (at 15, 30 and 45 minutes after administration, for MOR, DALDA and [Dmt^1]DALDA, respectively). Naloxone hydrochloride at a dose of 82.5 nmol or saline was administered via the intrathecal catheter 10 minutes prior to the second tail-flick testing. Four rats were tested for each combination of drugs. Data were analyzed using the paired t-test.
A dose 3 times the ED50 value of MOR, DALDA, or [Dmt^1]DALDA was administered intrathecally. Tail-flick latencies were measured prior to the administration of any drug (=baseline latency) and at the time of peak analgesia (=response latency). […]

[1] = In vivo pharmacokinetics in sheep; details: preliminary data, compared with DALDA and [Dmt1]DALDA
Method: Five or more days were allowed for recovery from surgery prior to experimental studies.
In vivo pharmacokinetic studies In order to avoid the rapid distribution phase associated with intravenous bolus administration, all three peptides were administered as constant rate intravenous infusions to sheep. […] DALDA (0.6 mg/kg/hr) and [Dmt^1]DALDA (0.06 mg/kg/hr) were, therefore, infused via the venous catheter for a period of 4 hr. […] The current limit of sensitivity of the analytical method prevented the use of an even lower dose of [Dmt^1]DALDA. Blood samples (5 ml) were collected from the arterial catheter at 0, 1, 2, 3, 3.5, 4, 4.25, 4.5, 5, 6 and 7 hr.
Pharmacokinetic Analyses Plasma levels of DAMGO, DALDA and [Dmt^1]DALDA during and after the 4 h infusion were subjected to compartmental analysis using nonlinear regression (WINNONLIN). The derived pharmacokinetic constants were used to calculate the apparent volume of distribution at steady state (Vd), elimination half-life (t1/2) and clearance (CL).

SMILES	effect on tail-flick latency (Male Sprague-Dawley rats)	elimination in sheep [1]
COC(=O)[C@@H]1[C@H]2C[C@H]3c4[nH]c5ccccc5c4CCN3C[C@@H]2CC[C@@H]1O [Yohimbine, yohimbine, reference compound]	no effect; also recorded: not having any effect on tail-flick latency by itself	–
C[C@@H](NC(=O)[C@@H](N)Cc1ccc(O)cc1)C(=O)NCC(=O)N(C)[C@@H](Cc1ccccc1)C(=O)NCCO [DAMGO]	–	much more rapid elimination
